From US20210380595A1 (ARAXES PHARMA LLC, priority 2018, published 2021)

Biological target: T1, KRAS G12C 1-169, his-tagged protein, GDP-loaded (Homo sapiens, UniProt P01116, G12C)
T1 construct: KRAS G12C 1-169, his-tagged protein, GDP-loaded
Test: Biochemical assay: covalent modification of KRAS G12C measured by mass spectrometry (RapidFire/TOF or Q-Exactive); note: time not given here
Type: binding
In short: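 GDP-loaded KRAS G12C 1-169 (his-tagged, 2 μM or 0.5 μM in 20 mM Hepes, 150 mM NaCl, 1 mM MgCl2) reacted with compound at 32 μM or 8 μM final, then quenched with formic acid. Intact-protein LC-MS (RapidFire/TOF or Q-Exactive) with charge-envelope deconvolution; % modification from modified vs unmodified peak intensities.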

[1] = tested at a concentration of 8 μM

SMILES | Bind % (tested at 32 μM) | Bind % [1]
C=CC(=O)N1CCCC2(C1)CN(c1cc(OCc3ccccn3)cc(-c3c(C)ccc4[nH]ncc34)c1C#N)C2 [Compound I-66, 2-(6-acryloyl-2,6-diazaspiro[3.5]nonan-2-yl)-6-(5-methyl-1H-indazol-4-yl)-4-(pyridin-2-ylmethoxy) benzonitrile] | + (+ indicates binding activity greater than 0% and up to 50%) | 
C=CC(=O)N1CCC2(C1)CN(c1cccc(-c3c(C)ccc4cnn(C)c34)c1C#N)C2 [Compound I-11, 2-(6-acryloyl-2,6-diazaspiro[3.4]octan-2-yl)-6-(1,6-dimethyl-1H-indazol-7-yl)benzonitrile] | + (+ indicates binding activity greater than 0% and up to 50%) | 
C=CC(=O)N1CC2(CCN(c3cccc(-c4c(C)ccc5[nH]ncc45)c3F)C2)C1 [Compound I-8, 1-(6-(2-fluoro-3-(5-methyl-1H-indazol-4-yl)phenyl)-2,6-diazaspiro[3.4]octan-2-yl)prop-2-en-1-one] | + (+ indicates binding activity greater than 0% and up to 50%) | 
C=CC(=O)N1CCC2(CC1)CN(c1ccc(F)c(-c3c(C)ccc4[nH]ncc34)c1C#N)C2 [Compound I-96, 6-(7-acryloyl-2,7-diazaspiro[3.5]nonan-2-yl)-3-fluoro-2-(5-methyl-1H-indazol-4-yl)benzonitrile] | + (+ indicates binding activity greater than 0% and up to 50%) | 
C=CC(=O)N1CC2(CCN(c3cc(N4CC(N(C)C)C4)c(F)c(-c4c(C)ccc5[nH]ncc45)c3C#N)CC2)C1 [Compound I-114, 6-(2-acryloyl-2,7-diazaspiro[3.5]nonan-7-yl)-4-(3-(dimethylamino)azetidin-1-yl)-3-fluoro-2-(5-methyl-1H-indazol-4-yl)benzonitrile] | + (+ indicates binding activity greater than 0% and up to 50%) | 
Cc1ccc2cnn(C)c2c1-c1cc(OCc2ccccn2)cc(N2CCC3(CN(C(=O)/C=C/CN(C)C)C3)C2)c1C#N [Compound I-54, (E)-2-(1,6-dimethyl-1H-indazol-7-yl)-6-(2-(4-(dimethylamino)but-2-enoyl)-2,6-diazaspiro[3.4]octan-6-yl)-4-(pyridin-2-ylmethoxy) benzonitrile] | +++ (+++ indicates binding activity greater than 75%) | 
C=CC(=O)N1CC2(CCN(c3cccc(-c4c(C)ccc5[nH]ncc45)c3C#N)C2)C1C (centres unmarked) [Compound I-126, 2-(2-acryloyl-1-methyl-2,6-diazaspiro[3.4]octan-6-yl)-6-(5-methyl-1H-indazol-4-yl)benzonitrile] |  | + (+ indicates binding activity greater than 0% and up to 50%)
CC#CC(=O)N1CCC2(CC1)CCN(c1cc(OCc3ccccn3)cc(-c3c(C)ccc4[nH]ncc34)c1C#N)C2 [Compound I-59, 2-(8-(but-2-ynoyl)-2,8-diazaspiro[4.5]decan-2-yl)-6-(5-methyl-1H-indazol-4-yl)-4-(pyridin-2-ylmethoxy) benzonitrile] | + (+ indicates binding activity greater than 0% and up to 50%) | 
C=CC(=O)N1CCC2(CCN(c3cccc(-c4c(C)ccc5cnn(C)c45)c3C#N)C2)C1 (centres unmarked) [Compound I-13, 2-(7-acryloyl-2,7-diazaspiro[4.4]nonan-2-yl)-6-(1,6-dimethyl-1H-indazol-7-yl)benzonitrile] | + (+ indicates binding activity greater than 0% and up to 50%) | 
C=CC(=O)N1CC2(CCN(c3ccc(OC)c(-c4c(C)ccc5[nH]ncc45)c3C#N)C2)C1 [Compound I-37, 6-(2-acryloyl-2,6-diazaspiro[3.4]octan-6-yl)-3-methoxy-2-(5-methyl-1H-indazol-4-yl)benzonitrile] |  | + (+ indicates binding activity greater than 0% and up to 50%)
CC#CC(=O)N1CCC2(CCCN(c3cc(OCc4ccccn4)cc(-c4c(C)ccc5[nH]ncc45)c3C#N)C2)C1 (centres unmarked) [Compound I-63, 2-(2-(but-2-ynoyl)-2,7-diazaspiro[4.5]decan-7-yl)-6-(5-methyl-1H-indazol-4-yl)-4-(pyridin-2-ylmethoxy) benzonitrile] | + (+ indicates binding activity greater than 0% and up to 50%) | 
